Source: PMC10537105, “Derivatives Incorporating Acridine, Pyrrole, and Thiazolidine Rings as Promising Antitumor Agents” (Molecules, 2023)
Like-named read-outs stand apart in the source and are kept apart here.

Assays:
[1] = tested on: HCT-116; experiment: MTT assay, HCT-116 cells; type: cell-based, human; conditions: MTT, 72 h of incubation, read-out: IC50 values ± SD, HCT-116
Description: (§1) The impact of acridine spiro derivatives 6–10 (Figure 13) on the metabolic activity of various tumor cell lines HCT-116 (human colorectal carcinoma), Jurkat (human leukemia cells), HeLa (human cervical adenocarcinoma), MDA-MB-231, and MCF-7 (human breast adenocarcinoma), and normal cell lines COS-7 (monkey kidney cells) and BJ-5ta (skin fibroblasts) was investigated using the MTT assay. This assay measures the conversion of yellow 3-(4,5-dimethylthiazol-2-yl)-2,5-diphenyltetrazolium bromide (MTT) to insoluble purple formazan by metabolically active cells. The antiproliferative activities of the tested compounds were determined based on the results from the MTT assay, and the inhibitory concentration values (IC50) are presented in Table 5.
(§2) The human cancer cell lines employed in this study were sourced from reputable institutions, including the American Type Culture Collection (ATCC; Manassas, VA, USA) and the European Collection of Authenticated Cell Cultures (ECACC, Salisbury, UK). Specifically, HeLa (93021013, human cervical adenocarcinoma), HCT116 (CCL-247TM, human colorectal carcinoma), and Jurkat (88042803, human leukemic T-cell lymphoma) were cultured in RPMI 1640 medium (Biosera, Kansas City, MO, USA). In contrast, MCF-7 (HTB-22TM, human breast adenocarcinoma, ER+), MDA-MB-231 (HTB-26TM, human breast adenocarcinoma, ER−), and COS-7 (CRL-1651TM, kidney fibroblasts) were nurtured in high-glucose Dulbecco’s Modified Eagle Medium (DMEM) supplemented with sodium pyruvate (Biosera). Furthermore, BJ-5ta (CRL-4001TM, human dermal fibroblasts) was cultured in a composite medium of high-glucose DMEM and M199 (4:1) (Biosera), supplemented with Hygromycin B (0.01 mg/mL; Merck, Darmstadt, Germany). All culture media were enriched with a 10% fetal bovine serum (FBS; Gibco, Thermo Scientific, Rockford, IL, USA) and an antibiotic/antimycotic solution (Merck) to ensure optimal growth conditions. The cells were meticulously maintained within a humidified environment containing 5% CO2 at 37 °C. Regular screenings for mycoplasma contamination were conducted using Hoechst 33342 staining (Merck), confirming the integrity of the cell lines.
(§3) To assess the antiproliferative impact of the synthesized compounds 6–10, their half-maximal inhibitory concentration (IC50) and the MTT colorimetric assay were employed. MDA-MB-231 and MCF-7 cells were seeded into 96-well microplates (SARSTEDT, Nümbrecht, Germany) at a density of 5 × 10^3 cells per well. After 24 h of cell seeding, various concentrations (100, 50, and 10 µmol/L) of acridine derivatives 6–10 were introduced, alongside cisplatin (utilized as a reference) at concentrations of 5, 10, 20, 50, and 100 µmol/L. Subsequent to 24, 48, and 72 h of treatment, the cells in each well underwent incubation with MTT (5 mg/mL, Sigma-Aldrich Chemie, Steinheim, Germany) for 4 h at 37 °C in the dark. During this period, mitochondrial oxidoreductases metabolized MTT, forming insoluble formazan. Following this, 100 µL of SDS (10% […]) was added to dissolve the formazan crystals, and the cells were incubated for an additional 12 h. Absorbance at 540 nm was measured using the automated Cytation™ 3 Cell Imaging Multi-Mode Reader (Biotek, Winooski, VT, USA). Each test was performed in triplicate, and three independent experiments were conducted to ensure precision and reliability.

[2] = tested on: COS-7; experiment: MTT assay, COS-7 normal cells; type: cell-based, monkey; conditions: normal cell line, read-out: IC50 values ± SD, COS-7
Description: as §1, §2, §3

[3] = tested on: BJ-5ta; experiment: MTT assay, BJ-5ta normal fibroblasts; type: cell-based, human; conditions: 72 h of incubation, normal cell line, read-out: IC50 values ± SD, BJ-5ta
Description: as §1, §2, §3

[4] = tested on: Jurkat; experiment: MTT assay, Jurkat cells; type: cell-based, human; conditions: MTT, 72 h of incubation, read-out: IC50 values ± SD, Jurkat
Description: as §1, §2, §3

[5] = tested on: MCF-7; experiment: MTT assay, MCF-7 cells; type: cell-based, human; conditions: read-out: IC50 values ± SD, MCF-7
Description: as §1, §2, §3

[6] = tested on: HeLa; experiment: MTT assay, HeLa cells; type: cell-based, human; conditions: 72 h of incubation, read-out: IC50 values ± SD, HeLa
Description: as §1, §2, §3

[7] = tested on: MDA-MB-231; experiment: MTT assay, MDA-MB-231 cells; type: cell-based, human; conditions: read-out: IC50 values ± SD, MDA-MB-231
Description: as §1, §2, §3

[8] = Primates, COS-7, 72 h of incubation
[9] = Homo sapiens, MCF7, 72 h of incubation
[10] = Homo sapiens, MDA-MB-231, 72 h of incubation

Row | IC50 ([1]; Homo sapiens, HCT-116) | melting point | IC50 ([4]; Homo sapiens, Jurkat) | IC50 [5, 9] | IC50 ([6]; Homo sapiens, HeLa) | IC50 [7, 10] | Compound | IC50 [2, 8] | IC50 ([3]; Homo sapiens, Fibroblast) | IC50 [1] | IC50 ([2]; 72 h of incubation) | IC50 [3] | IC50 [4] | IC50 ([5]; 72 h of incubation) | IC50 [6] | IC50 ([7]; 72 h of incubation)
1 | 14.3 ± 5.09 µM | 194 to 195 °C (dec.) | 11.6 ± 4.3 µM | > 100 µM | 67.2 ± 8.65 µM | > 100 µM | N#CC1=CC2(c3ccccc3Nc3ccccc32)N(NC(=S)Nc2ccccc2)C1=O [6a, 3-{4′-Cyano-5′-oxo-1′,5′-dihydro-10H-spiro[acridine-9,2′-pyrrol]-1′-yl}-1-phenylthiourea] | > 100 µM | 92.2 ± 1.6 µM | – | – | – | – | – | – | –
2 | 41.5 ± 4.77 µM | – | 39.9 ± 5.19 µM | > 100 µM | > 100 µM | > 100 µM | COc1ccc(NC(=S)NN2C(=O)C(C#N)=CC23c2ccccc2Nc2ccccc23)cc1 [6b, 3-{4′-Cyano-5′-oxo-1′,5′-dihydro-10H-spiro[acridine-9,2′-pyrrol]-1′-yl}-1-(4-methoxyphenyl)thiourea] | > 100 µM | > 100 µM | – | – | – | – | – | – | –
3 | 18.9 ± 4.71 µM | 197 to 199 °C (dec.) | 31.8 ± 5.65 µM | > 100 µM | > 100 µM | > 100 µM | N#CC1=CC2(c3ccccc3Nc3ccccc32)N(NC(=S)Nc2ccc(F)cc2)C1=O [6d, 3-{4′-Cyano-5′-oxo-1′,5′-dihydro-10H-spiro[acridine-9,2′-pyrrol]-1′-yl}-1-(4-fluorophenyl)thiourea] | > 100 µM | > 100 µM | – | – | – | – | – | – | –
4 | 41.3 ± 2.3 µM | 241 to 243 °C (dec.) | > 100 µM | 21.62 ± 0.1 µM | 51.2 ± 3.32 µM | > 100 µM | N#CC1=CC2(c3ccccc3Nc3ccccc32)N(/N=C2\SCC(=O)N2c2ccccc2)C1=O [7a, 5′-Oxo-1′-{[(2Z)-4-oxo-3-phenyl-1,3-thiazolidin-2-ylidene]amino}-1′,5′-dihydro-10H-spiro[acridine-9,2′-pyrrole]-4′-carbonitrile] | > 100 µM | > 100 µM | – | – | – | – | – | – | –
5 | > 100 µM | 207 to 210 °C (dec.) | > 100 µM | 30.8 ± 5.22 µM | > 100 µM | > 100 µM | COc1ccc(N2C(=O)CS/C2=N\N2C(=O)C(C#N)=CC23c2ccccc2Nc2ccccc23)cc1 [7b, 1′-{[(2Z)-3-(4-Methoxyphenyl)-4-oxo-1,3-thiazolidin-2-ylidene]amino}-5′-oxo-1′,5′-dihydro-10H-spiro[acridine-9,2′-pyrrole]-4′-carbonitrile] | > 100 µM | > 100 µM | – | – | – | – | – | – | –
6 | 24.4 ± 1.31 µM | 217 to 220 °C (dec.) | 22.1 ± 0.43 µM | 45.14 ± 0.04 µM | 54 ± 0.72 µM | 39.7 ± 2.4 µM | COc1cccc(N2C(=O)CS/C2=N\N2C(=O)C(C#N)=CC23c2ccccc2Nc2ccccc23)c1 [7c, 1′-{[(2Z)-3-(3-Methoxyphenyl)-4-oxo-1,3-thiazolidin-2-ylidene]amino}-5′-oxo-1′,5′-dihydro-10H-spiro[acridine-9,2′-pyrrole]-4′-carbonitrile] | 55.2 ± 5.38 µM | 38 ± 1.44 µM | – | – | – | – | – | – | –
7 | 46.6 ± 2.66 µM | 249 to 252 °C (dec.) | > 100 µM | 32.5 ± 6.5 µM | 62.5 ± 14 µM | > 100 µM | N#CC1=CC2(c3ccccc3Nc3ccccc32)N(/N=C2\SCC(=O)N2c2ccc(F)cc2)C1=O [7d, 1′-{[(2Z)-3-(4-Fluorophenyl)-4-oxo-1,3-thiazolidin-2-ylidene]amino}-5′-oxo-1′,5′-dihydro-10H-spiro[acridine-9,2′-pyrrole]-4′-carbonitrile] | > 100 µM | > 100 µM | – | – | – | – | – | – | –
8 | 46.2 ± 2.02 µM | 244 to 247 °C (dec.) | 35.5 ± 2.31 µM | > 100 µM | > 100 µM | > 100 µM | N#CC1=CC2(c3ccccc3Nc3ccccc32)N(/N=C2\SCC(=O)N2c2ccc([N+](=O)[O-])cc2)C1=O [7e, 1′-{[(2Z)-3-(4-Nitrophenyl)-4-oxo-1,3-thiazolidin-2-ylidene]amino}-5′-oxo-1′,5′-dihydro-10H-spiro[acridine-9,2′-pyrrole]-4′-carbonitrile] | > 100 µM | > 100 µM | – | – | – | – | – | – | –
9 | 5.37 ± 0.01 µM | – | 5.67 ± 0.03 µM | 12.8 ± 4.24 µM | 16.9 ± 3.5 µM | 7.43 ± 0.72 µM | CCOC(=O)/C=C1\S/C(=N\N2C(=O)C(C#N)=CC23c2ccccc2Nc2ccccc23)N(c2ccc(OC)cc2)C1=O [8b, Ethyl 2-[(2Z,5Z)-2-({4′-cyano-5′-oxo-1′,5′-dihydro-10H-spiro[acridine-9,2′-pyrrol]-1′-yl}imino)-3-(4-methoxyphenyl)-4-oxo-1,3-thiazolidin-5-ylidene]acetate] | 11.5 ± 1.74 µM | 6.82 ± 0.24 µM | – | – | – | – | – | – | –
10 | 5.46 ± 0.02 µM | 269 to 272 °C (dec.) | 5.64 ± 0.09 µM | 8.52 ± 0.79 µM | 5.97 ± 0.15 µM | 7.85 ± 0.97 µM | CCOC(=O)/C=C1\S/C(=N\N2C(=O)C(C#N)=CC23c2ccccc2Nc2ccccc23)N(c2ccc(F)cc2)C1=O [8d, Ethyl 2-[(2Z,5Z)-2-({4′-cyano-5′-oxo-1′,5′-dihydro-10H-spiro[acridine-9,2′-pyrrol]-1′-yl}imino)-3-(4-fluorophenyl)-4-oxo-1,3-thiazolidin-5-ylidene]acetate] | 9.45 ± 0.24 µM | 7.32 ± 0.35 µM | – | – | – | – | – | – | –
11 | 5.45 ± 0.01 µM | 183 to 186 °C (dec.) | 5.6 ± 0.04 µM | 9.48 ± 0.27 µM | 6.5 ± 0.43 µM | 8 ± 1.32 µM | CCOC(=O)/C=C1\S/C(=N\N2C(=O)C(C#N)=CC23c2ccccc2Nc2ccccc23)N(c2ccc([N+](=O)[O-])cc2)C1=O [8e, Ethyl 2-[(2Z,5Z)-2-({4′-cyano-5′-oxo-1′,5′-dihydro-10H-spiro[acridine-9,2′-pyrrol]-1′-yl}imino)-3-(4-nitrophenyl)-4-oxo-1,3-thiazolidin-5-ylidene]acetate] | 10.2 ± 0.5 µM | 7.07 ± 0.26 µM | – | – | – | – | – | – | –
12 | > 100 µM | 245 to 249 °C (dec.) | > 100 µM | > 100 µM | > 100 µM | > 100 µM | CC1S/C(=N\N2C(=O)C(C#N)=CC23c2ccccc2Nc2ccccc23)N(c2ccccc2)C1=O (centres unmarked) [9a, 1′-{[(2Z)-5-Methyl-4-oxo-3-phenyl-1,3-thiazolidin-2-ylidene]amino}-5′-oxo-1′,5′-dihydro-10H-spiro[acridine-9,2′-pyrrole]-4′-carbonitrile] | > 100 µM | > 100 µM | – | – | – | – | – | – | –
13 | – | – | – | – | – | – | N.N.[Cl][Pt][Cl] [Cisplatin, cisplatin, reference compound] | – | – | 12.4 ± 2.1 µM | 24.6 ± 1.4 µM | 36 ± 1.87 µM | 8.18 ± 1.6 µM | 26.5 ± 3.19 µM | 35.4 ± 2.5 µM | 7.1 ± 0.9 µM
